Here are results for 2 compounds from patent publication US4552865A, “Psychotropic drugs” (Shionogi & Co., Ltd., priority 1981, dated 1985).

Data set [1] concerns patients of schizophrenia.
Experimental: (1) Method of application: Caerulein tris-diethylamine salt is dissolved in sterilized physiological saline at a rate of 20 μg/ml (W/V), and intramuscularly injected to each patient once at a dose of 0.3 μg/kg (body weight) or 0.6 μg/kg (body weight).
In data set [2] the test system is rats. The note with it: intravenous, cited from earlier work.
Data set [3] has as its system mice. Particulars: intravenous, cited from earlier work.

Each structure is given as a SMILES string. Where a name gives a salt, the structure may show the parent alone. Read-outs that look alike come from different tables or passages of the source. Where a SMILES comes first, the peptide text is derived from it. [ ]: non-standard residue; d: D form. sY = N[C@@H](Cc1ccc(OS(=O)(=O)O)cc1)C(=O)O; pGlu = O=C1CC[C@@H](C(=O)O)N1

Regarding `CSCC[C@H](NC(=O)[C@H](Cc1c[nH]c2ccccc12)NC(=O)CNC(=O)[C@@H](NC(=O)[C@H](Cc1ccc(OS(=O)(=O)O)cc1)NC(=O)[C@H](CC(=O)O)NC(=O)[C@H](CCC(N)=O)NC(=O)[C@@H]1CCC(=O)N1)[C@@H](C)O)C(=O)N[C@@H](CC(=O)O)C(=O)N[C@@H](Cc1ccccc1)C(N)=O` [Caerulein tris-diethylamine salt] ([pGlu]QD[sY]TGWMDF-NH2), the Side effect result in data set [1] (individual schizophrenia patient, after i.m. injection) is “No”.

A word on the LD50: it is the dose at which mortality reaches 50%. For the compound `CSCC[C@H](NC(=O)[C@H](Cc1c[nH]c2ccccc12)NC(=O)CNC(=O)[C@@H](NC(=O)[C@H](Cc1ccc(OS(=O)(=O)O)cc1)NC(=O)[C@H](CC(=O)O)NC(=O)[C@H](CCC(N)=O)NC(=O)[C@@H]1CCC(=O)N1)[C@@H](C)O)C(=O)N[C@@H](CC(=O)O)C(=O)N[C@@H](Cc1ccccc1)C(N)=O` [caerulein, 5-oxo-L-prolyl-L-glutaminyl-L-aspartyl-O-sulfo-L-tryosyl-L-threonylglycyl-L-tryptophyl-L-methionyl-L-aspartyl-L-phenylalaninamide] ([pGlu]QD[sY]TGWMDF-NH2), the LD50 in data set [2] (female) is reported as 571 mg/kg; in data set [2] (male), 714 mg/kg; in data set [3] (female) it was 702 mg/kg; in data set [3] (male), 647 mg/kg. Further, in data set [1] (administered to humans), the mental conditions entry is “improves rapidly and markedly the mental conditions”.
